Data on two compounds can be found in the NIST ThermoML archive (doi:10.1021/je030106k).

± gives the expanded uncertainty stated by the source.

For this series the following is noted: Liquid.

A word on the vapor or sublimation pressure: it is the equilibrium pressure above the liquid or solid. In the case of `CC(C)C` [2-methylpropane], the “vapor or sublimation pressure” value amounted to 157.2 ± 1.6 kPa (273.15 K), 221.8 ± 1.8 kPa (283.15 K), 303.4 ± 2.1 kPa (293.15 K) and 405.2 ± 2.6 kPa (303.15 K).

For the compound `CCC` [propane], the “vapor or sublimation pressure” value (273.15 K) is given as 475 ± 1.8 kPa, the “vapor or sublimation pressure” value (283.15 K) stood at 637.8 ± 2.2 kPa, the “vapor or sublimation pressure” value (293.15 K) worked out at 836 ± 2.6 kPa and the “vapor or sublimation pressure” value (303.15 K) is reported as 1078.4 ± 3.2 kPa.
